pIC50: −log10 of the molar value.
Assays:
[1] = molecular target: T1, neutrophil elastase (Homo sapiens, UniProt P08246); experiment: Human Neutrophil Elastase Assay; assay type: biochemical; parameters: purchased Calbiochem 324681; details: substrate MeOSuc-Ala-Ala-Pro-Val-AMC, pH 7.5, room temperature
T1 sequence (P08246 30-247 limits assumed): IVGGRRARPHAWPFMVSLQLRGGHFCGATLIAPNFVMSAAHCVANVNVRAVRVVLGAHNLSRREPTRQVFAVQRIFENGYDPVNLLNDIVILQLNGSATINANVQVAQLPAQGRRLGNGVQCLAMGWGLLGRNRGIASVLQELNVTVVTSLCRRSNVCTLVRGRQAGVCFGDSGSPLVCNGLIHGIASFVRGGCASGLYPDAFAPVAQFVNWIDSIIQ
Method in brief: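 Readout: AMC fluorescence (ex 380, em 460 nm) after 60 min room-temperature reaction with 250 nM MeOSuc-AAPV-AMC, following 15 min compound–enzyme preincubation. Buffer: Tris/NaCl pH 7.5, 0.01% BSA.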

[2] = Metabolic stability with human liver microsomes; assay type: in vitro ADME; details: pooled human liver microsomes, 37° C., 1 mg/ml protein, NADPH; for half-life at 1 nM: pH 7.6, read-out: t1/2 INVITRO
Method: Assay for the Determination of Metabolic Stability with Human Liver Microsomes
The metabolic degradation of the test compound is assayed at 37° C. with pooled human liver microsomes. The final incubation volume of […] per time point contains TRIS buffer pH 7.6 (0.1 M), magnesium chloride (5 mM), microsomal protein (1 mg/ml) and the test compound at a final concentration of […]. Following a short preincubation period at 37° C., the reactions are initiated by addition of beta-nicotinamide adenine dinucleotide phosphate, reduced form (NADPH, 1 mM) and terminated by transfering an aliquot into acetonitrile after different time points. Additionally, the NADPH-independent degradation is monitored in incubations without NADPH, terminated at the last time point. The rol remaining test compound after NADPH independent incubation is reflected by the parameter c(control) (metabolic stability). The quenched incubations are pelleted by centrifugation (10′000 g, 5 min) An aliquot of the supernatant is assayed by LC-MS/MS for the amount of parent compound.
The half-life (t1/2 INVITRO) is determined by the slope of the semilogarithmic plot of the concentration-time profile. The intrinsic clearance (CL_[…]) is calculated by considering the amount of protein in the incubation: CL_[…][μl/min/mg protein]=(ln 2/(half-life [min]*protein content [mg/ml]))*1′000.
The half-life (t1/2 INVITRO) values of selected compounds in the metabolic stability assay described above are listed in Table 15.

[3] = Drug transport across human CACO-2 cells; assay type: in vitro ADME
From the text: Assay for Determination of Drug Transport Across Human CACO-2 Cells
The assay provides information on the potential of a compound to pass the cell membrane, on the extent of oral absorption as well as on whether the compound is actively transported by uptake and/or efflux transporters. For the measurement of permeability across polarized, confluent human cancer colon carcinoma cells 2 (Caco-2) cell monolayers grown on permeable filter supports are used as the in vitro absorption model. Apparent permeability coefficients (PE) of the compounds across the Caco-2 monolayers are measured (pH 7.2, 37° C.) in apical-to-basal (AB) (absorptive) and basal-to-apical (BA) (secretory) transport direction. AB permeability (PEAB) represents drug absorption from the intestine into the blood and BA permeability (PEBA) drug secretion from the blood back into the intestine via both passive permeability as well as active transport mechanisms mediated by efflux and uptake transporters that are expressed on the Caco-2 cells. The compounds are assigned to permeability/absorption classes by comparison of the AB permeabilities with the AB permeabilities of reference compounds with known in vitro permeability and oral absorption in the human. Identical or similar permeabilities in both transport directions indicate passive permeation, vectorial permeability points to additional active transport mechanisms. […] Active transport is concentration-dependently saturable.
Caco-2 cells (1−2*10^5 cells/cm^2 area) are seeded on filter inserts (Costar transwell polycarbonate or PET filters, […] pore size) and cultured (DMEM) for 10 to 25 days. Compounds are dissolved in appropriate solvent (like DMSO, 1-20 mM stock solutions). Stock solutions are diluted with HTP-4 buffer (128.13 mM NaCl, 5.36 mM KCl, 1 mM MgSO4, 1.8 mM CaCl2, 4.17 mM NaHCO3, 1.19 mM Na2HPO4×7H2O, 0.41 mM NaH2PO4×H2O, 15 mM HEPES, 20 mM glucose, pH 7.2) to prepare the transport solutions (typically […] compound, final DMSO <=0.5%). The transport solution (TL) is applied to the apical or basolateral donor side for measuring A-B or B-A permeability (3 filter replicates), respectively. The receiver side contains HTP-4 buffer supplemented with 2% BSA. Samples are collected at the start and end of experiment from the donor and at various time intervals for up to 2 hours also from the receiver side for concentration measurement by LC-MS/MS or scintillation counting. Sampled receiver volumes are is replaced with fresh receiver solution.
The apparent permeability coefficients (PEAB and PEBA) and efflux ratios (PEBA/PEAB) of selected compounds in the Caco-2 drug transport assay described above are listed in Table 17.

| SMILES | pIC50 [1] | half-life at 1 nM [2] [h] | Papp A→B at 10 nM ([3]; Caco-2 monolayers, apical-to-basal, pH 7.2, 37° C., read-out: PEAB) [×10⁻⁶ cm/s] | Papp B→A at 10 nM ([3]; Caco-2 monolayers, basal-to-apical, pH 7.2, 37° C., read-out: PEBA) [×10⁻⁶ cm/s] | efflux ratio at 10 nM ([3]; pH 7.2, Caco-2, PEBA/PEAB) | t1/2 INVITRO [2] [h] |
| --- | --- | --- | --- | --- | --- | --- |
| N#Cc1ccc(C2C3=C(CCCC3=O)N(c3cccc(C(F)(F)F)c3)C(=O)N2C(=O)NCCO)cc1 (centres unmarked) [Example 39.3] | > 9.00 | > 2.17 | 12.8 | 76.5 | 6 |  |
| CS(=O)(=O)CCNC(=O)N1C(=O)N(c2cccc(C(F)(F)F)c2)C2=C(C(=O)CCC2)C1c1ccc(C#N)cc1 (centres unmarked) [Example 39.19] | > 9.00 | > 2.17 |  |  |  |  |
| CC(C)NC(=O)N1C(=O)N(c2cccc(C(F)(F)F)c2)C2=C(C(=O)CCC2)[C@H]1c1ccc(C#N)cc1S(C)(=O)=O [Example 75.3] | > 9.00 |  |  |  |  | >2.17 |
| CS(=O)(=O)c1cc(C#N)ccc1[C@@H]1C2=C(CCCC2=O)N(c2cccc(C(F)(F)F)c2)C(=O)N1C(=O)NCC(F)F [Example 75.7] | > 9.00 |  |  |  |  | >2.17 |

Source: patent US9115093B2, “Substituted bicyclic dihydropyrimidinones and their use as inhibitors of neutrophil elastase activity” (Boehringer Ingelheim International GmbH, priority 2013, dated 2015)
